Measured values as given in the NIST ThermoML archive (doi:10.1016/j.tca.2015.01.022).

Assay: molar heat capacity at constant pressure
Conditions: 101.33 kPa, Small (less than 1 g) adiabatic calorimetry

CCCCCCCC[n+]1ccn(C)c1.F[B-](F)(F)F [1-methyl-3-octylimidazolium tetrafluoroborate]
Conditions | molar heat capacity at constant pressure [J/K/mol]
148.21 K, Glass | 270.7
149.81 K, Crystal | 251.1
150 K, Crystal | 251.3
150 K, Glass | 273.5
150.08 K, Crystal | 251.3
150.11 K, Glass | 273.6
151.75 K, Crystal | 253.4
152 K, Glass | 276.6
152.02 K, Crystal | 253.6
153.69 K, Crystal | 255.7
153.91 K, Glass | 279.6
153.96 K, Crystal | 255.9
155.63 K, Crystal | 258
155.81 K, Glass | 282.6
155.9 K, Crystal | 258.3
157.57 K, Crystal | 260.3
157.72 K, Glass | 285.4
157.84 K, Crystal | 260.6
159.5 K, Crystal | 262.7
159.62 K, Glass | 288.5
159.77 K, Crystal | 263
160 K, Crystal | 263.2
160 K, Glass | 289.3
161.44 K, Crystal | 265.2
161.53 K, Glass | 291.6
161.71 K, Crystal | 265.3
162.37 K, Glass | 293
163.37 K, Crystal | 267.5
163.44 K, Glass | 294.7
163.64 K, Crystal | 267.7
164.32 K, Glass | 296.1
165.31 K, Crystal | 270
165.35 K, Glass | 297.8
165.57 K, Crystal | 270.2
166.17 K, Glass | 299.2
167.24 K, Crystal | 272.5
167.26 K, Glass | 301.2
167.5 K, Crystal | 272.7
168.01 K, Glass | 302.3
169.16 K, Crystal | 275
169.17 K, Glass | 304.3
169.43 K, Crystal | 275.2
169.85 K, Glass | 305.4
170 K, Crystal | 276
170 K, Glass | 305.6
171.09 K, Crystal | 277.5
171.09 K, Glass | 307.7
171.36 K, Crystal | 277.7
171.68 K, Glass | 308.8
173 K, Glass | 311.1
173.01 K, Crystal | 280.1
173.28 K, Crystal | 280.3
173.52 K, Glass | 311.9
174.93 K, Crystal | 282.6
174.93 K, Glass | 314.5
175.2 K, Crystal | 282.9
175.35 K, Glass | 315.3
176.85 K, Crystal | 285.4
176.85 K, Glass | 318.4
177.12 K, Crystal | 285.7
177.17 K, Glass | 319.3
178.76 K, Crystal | 288.3
178.77 K, Glass | 322.6
179 K, Glass | 322.9
179.03 K, Crystal | 288.3
180 K, Crystal | 290
180 K, Glass | 325.4
180.67 K, Crystal | 291.1
180.7 K, Glass | 327.1
180.82 K, Glass | 327.4
180.94 K, Crystal | 291.4
182.58 K, Crystal | 293.9
182.63 K, Glass | 332.5
182.85 K, Crystal | 294.2
184.43 K, Glass | 338.1
184.48 K, Crystal | 296.7
184.56 K, Glass | 339
184.75 K, Crystal | 297
186.22 K, Glass | 345.5
186.38 K, Crystal | 299.8
186.48 K, Glass | 348
186.65 K, Crystal | 299.8
187.99 K, Glass | 355.9
188.27 K, Crystal | 302.6
188.39 K, Glass | 361.5
188.55 K, Crystal | 302.6
189.72 K, Glass | 373.1
190 K, Crystal | 305
190 K, Glass | 380.4
190.16 K, Crystal | 305.4
190.27 K, Liquid | 387.4
190.44 K, Crystal | 305.4
191.35 K, Liquid | 408.9
192.04 K, Crystal | 308.3
192.05 K, Liquid | 444.4
192.32 K, Crystal | 308.5
192.85 K, Liquid | 463.5
193.84 K, Liquid | 466.1
193.92 K, Crystal | 311.4
194.2 K, Crystal | 311.6
194.36 K, Liquid | 466.3
195.76 K, Liquid | 466.6
195.8 K, Crystal | 314.5
196.08 K, Crystal | 314.7
197.67 K, Crystal | 317.3
197.7 K, Liquid | 465.8
197.95 K, Crystal | 317.8
199.54 K, Crystal | 320.7
199.64 K, Liquid | 464.9
199.82 K, Crystal | 320.9
200 K, Crystal | 320
200 K, Liquid | 464.9
201.46 K, Crystal | 323.8
201.58 K, Liquid | 464.7
201.81 K, Crystal | 324.6
203.44 K, Crystal | 327.4
203.53 K, Liquid | 464.1
203.91 K, Crystal | 328.6
205.42 K, Crystal | 331.1
205.47 K, Liquid | 463.8
206.02 K, Crystal | 332.2
207.4 K, Crystal | 334.5
207.42 K, Liquid | 463.5
208.11 K, Crystal | 335.9
209.36 K, Liquid | 463.5
209.37 K, Crystal | 338.1
210 K, Crystal | 335
210 K, Liquid | 463.4
210.2 K, Crystal | 339.8
211.3 K, Liquid | 463.2
211.34 K, Crystal | 342.1
212.28 K, Crystal | 344.3
213.25 K, Liquid | 463.5
213.29 K, Crystal | 346
214.36 K, Crystal | 348
215.19 K, Liquid | 463.2
215.24 K, Crystal | 350
216.42 K, Crystal | 352.2
217.13 K, Liquid | 463.5
217.18 K, Crystal | 355
218.47 K, Crystal | 357.6
219.08 K, Liquid | 463.8
219.11 K, Crystal | 360.4
220 K, Crystal | 349.9
220 K, Liquid | 463.8
220.51 K, Crystal | 362.9
221.02 K, Crystal | 365.7
221.02 K, Liquid | 463.8
222.53 K, Crystal | 369.1
222.93 K, Crystal | 371.1
222.96 K, Liquid | 464.1
224.55 K, Crystal | 375
224.82 K, Crystal | 376.7
224.9 K, Liquid | 464.7
226.56 K, Crystal | 381
226.7 K, Crystal | 382.4
226.85 K, Liquid | 464.9
228.55 K, Crystal | 387.4
228.58 K, Crystal | 388.3
228.8 K, Liquid | 465.8
230 K, Crystal | 364.9
230 K, Liquid | 465.8
230.44 K, Crystal | 395.1
230.53 K, Crystal | 394.5
230.75 K, Liquid | 466.6
232.29 K, Crystal | 402.4
232.49 K, Crystal | 402.1
234.12 K, Crystal | 411.7
234.44 K, Crystal | 412
235.93 K, Crystal | 423.8
236.36 K, Crystal | 424.6
237.7 K, Crystal | 441.5
238.24 K, Crystal | 445.5
239.43 K, Crystal | 472
240 K, Crystal | 379.9
240 K, Liquid | 468.9
240.06 K, Crystal | 487.8
245.81 K, Crystal | 388.6
245.81 K, Liquid | 471
248.34 K, Liquid | 472
249.07 K, Liquid | 472.3
250 K, Liquid | 472.6
250.32 K, Liquid | 472.8
251 K, Liquid | 473.1
252.27 K, Liquid | 473.7
252.93 K, Liquid | 473.9
254.22 K, Liquid | 474.5
254.87 K, Liquid | 474.8
256.17 K, Liquid | 475.4
256.8 K, Liquid | 475.6
258.12 K, Liquid | 476.2
258.74 K, Liquid | 476.5
260 K, Liquid | 477.3
260.07 K, Liquid | 477.3
260.67 K, Liquid | 477.6
262.02 K, Liquid | 478.2
262.61 K, Liquid | 478.5
263.97 K, Liquid | 479.3
264.54 K, Liquid | 479.6
265.92 K, Liquid | 480.1
266.48 K, Liquid | 480.4
267.87 K, Liquid | 481.3
268.42 K, Liquid | 481.6
269.82 K, Liquid | 482.1
270 K, Liquid | 482.4
270.35 K, Liquid | 482.4
271.77 K, Liquid | 483.2
272.29 K, Liquid | 483.5
273.73 K, Liquid | 484.4
274.23 K, Liquid | 484.7
275.68 K, Liquid | 485.2
276.16 K, Liquid | 485.5
277.63 K, Liquid | 486.6
278.1 K, Liquid | 486.6
279.58 K, Liquid | 487.8
280 K, Liquid | 487.7
281.53 K, Liquid | 488.9
283.48 K, Liquid | 489.7
285.44 K, Liquid | 490.9
287.39 K, Liquid | 492
289.34 K, Liquid | 493.1
290 K, Liquid | 493.2
291.29 K, Liquid | 494.2
293.24 K, Liquid | 495.4
295.19 K, Liquid | 496.5
297.15 K, Liquid | 497.3
298.15 K, Liquid | 497.8
299.1 K, Liquid | 498.5
300 K, Liquid | 498.9
301.05 K, Liquid | 499.6
303 K, Liquid | 500.7
304.95 K, Liquid | 502.1
306.9 K, Liquid | 503
308.86 K, Liquid | 504.4
310 K, Liquid | 504.8
310.81 K, Liquid | 505.2
312.76 K, Liquid | 506.4
314.71 K, Liquid | 507.5
316.67 K, Liquid | 508.9
318.62 K, Liquid | 510
320 K, Liquid | 510.9
320.57 K, Liquid | 511.1
322.53 K, Liquid | 512.3
324.48 K, Liquid | 513.4
326.44 K, Liquid | 514.8
328.39 K, Liquid | 515.9
330 K, Liquid | 517.1
330.34 K, Liquid | 517.1
332.3 K, Liquid | 518.5
334.25 K, Liquid | 519.9
336.21 K, Liquid | 521
338.16 K, Liquid | 522.4
340 K, Liquid | 523.6
340.11 K, Liquid | 523.8
342.07 K, Liquid | 524.7
344.02 K, Liquid | 526.4
345.98 K, Liquid | 527.2
347.93 K, Liquid | 528.9
349.89 K, Liquid | 530.3
350 K, Liquid | 530.3
351.85 K, Liquid | 531.7
353.8 K, Liquid | 533.1
355.76 K, Liquid | 534.2
357.71 K, Liquid | 535.7
359.66 K, Liquid | 536.8
360 K, Liquid | 537.1
361.61 K, Liquid | 538.2
363.57 K, Liquid | 539.3
365.52 K, Liquid | 540.7
367.47 K, Liquid | 542.4
370 K, Liquid | 544.2
